Results from PMC6023986, “Interactions Between Emodin and Efflux Transporters on Rat Enterocyte by a Validated Ussing Chamber Technique” (Frontiers in Pharmacology, 2018).
Where two headings read alike, the source gives them in different places.

Experiments:
[1] = molecular target: T1, MRP2 (Rattus norvegicus, UniProt Q63120); experiment: Ussing chamber bidirectional transport, model validation for MRP2 (pravastatin substrate, MK571 inhibitor); type: in vitro ADME; set-up: intestinal segments including duodenum, jejunum, ileum, and colon from anesthetized rats were immediately removed by surgery; from tissue; host or cells: stripped rat intestine (jejunum and ileum in validation; jejunum for the emodin studies); settings: rat
T1 sequence (Q63120 whole entry): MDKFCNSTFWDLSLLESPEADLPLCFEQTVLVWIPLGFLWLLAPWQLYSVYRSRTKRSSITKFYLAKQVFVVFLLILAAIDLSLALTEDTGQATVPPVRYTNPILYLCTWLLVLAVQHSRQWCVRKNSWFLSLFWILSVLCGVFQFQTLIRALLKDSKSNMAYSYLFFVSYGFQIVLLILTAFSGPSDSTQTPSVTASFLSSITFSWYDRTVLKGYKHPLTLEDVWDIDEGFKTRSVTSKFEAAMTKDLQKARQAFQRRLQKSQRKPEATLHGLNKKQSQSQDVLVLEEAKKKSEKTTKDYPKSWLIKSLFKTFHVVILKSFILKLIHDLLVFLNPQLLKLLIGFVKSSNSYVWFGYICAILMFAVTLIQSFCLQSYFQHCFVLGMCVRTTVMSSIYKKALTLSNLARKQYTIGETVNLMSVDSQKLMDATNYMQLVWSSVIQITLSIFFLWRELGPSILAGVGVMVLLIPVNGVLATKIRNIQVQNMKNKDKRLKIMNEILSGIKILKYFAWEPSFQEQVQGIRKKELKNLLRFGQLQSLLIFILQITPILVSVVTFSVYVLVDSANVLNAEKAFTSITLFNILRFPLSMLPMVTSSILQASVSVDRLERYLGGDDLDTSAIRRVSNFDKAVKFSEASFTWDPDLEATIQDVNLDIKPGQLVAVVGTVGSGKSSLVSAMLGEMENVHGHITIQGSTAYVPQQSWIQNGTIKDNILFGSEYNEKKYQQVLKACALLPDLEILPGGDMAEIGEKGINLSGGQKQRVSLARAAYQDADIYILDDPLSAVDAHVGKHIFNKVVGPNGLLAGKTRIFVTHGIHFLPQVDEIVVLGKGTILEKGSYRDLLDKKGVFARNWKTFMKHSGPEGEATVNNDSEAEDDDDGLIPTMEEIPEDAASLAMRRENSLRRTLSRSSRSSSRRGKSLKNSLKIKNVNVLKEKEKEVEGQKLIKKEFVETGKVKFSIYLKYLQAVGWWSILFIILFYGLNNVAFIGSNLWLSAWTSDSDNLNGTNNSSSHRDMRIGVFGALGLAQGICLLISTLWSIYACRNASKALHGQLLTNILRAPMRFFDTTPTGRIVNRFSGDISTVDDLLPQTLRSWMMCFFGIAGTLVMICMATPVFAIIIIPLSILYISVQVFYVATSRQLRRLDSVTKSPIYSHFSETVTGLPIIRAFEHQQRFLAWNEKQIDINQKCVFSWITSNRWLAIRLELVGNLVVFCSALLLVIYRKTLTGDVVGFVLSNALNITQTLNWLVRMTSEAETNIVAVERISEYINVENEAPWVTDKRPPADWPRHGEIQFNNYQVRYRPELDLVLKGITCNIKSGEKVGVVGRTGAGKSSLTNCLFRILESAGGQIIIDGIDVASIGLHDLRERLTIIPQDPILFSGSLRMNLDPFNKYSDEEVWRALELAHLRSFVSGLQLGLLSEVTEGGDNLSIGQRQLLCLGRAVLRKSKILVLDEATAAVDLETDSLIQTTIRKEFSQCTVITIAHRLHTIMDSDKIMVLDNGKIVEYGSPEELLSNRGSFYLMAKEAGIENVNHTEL
Description: (§1) The four intestinal segments including duodenum, jejunum, ileum, and colon from anesthetized rats were immediately removed by surgery and washed with KRB solution. Each section of the intestinal segments was then placed in cold (on ice), bubbled (O2:CO2 95:5) KRB buffer. The four intestinal segments were then cut into 2 cm pieces, respectively, and serosas were removed by blunt dissection. Peyer’s patches were excluded from the experiment by visually identified. The stripped tissues were mounted in chambers with exposed surface area of 0.49 cm^2. Temperature of the chambers was maintained at 37 ± 0.5°C. Each of the half-cells in the chambers was filled with 5 mL fresh KRB buffer (pH 6.5). Tissue viability was continuously controlled by potential difference (PD).
Digoxin, pravastatin, and teniposide were employed as the test substrates of P-gp, MRP2, and MRP3. […] The experiments were started after 30 min equilibration time, by changing the KRB buffer on both sides; 5 mL KRB solution with different test compounds was filled in the mucosal or serosal compartment; meanwhile, equal volume fresh buffer was added to the other compartment. […] The bidirectional transport studies with specific inhibitors were assessed to validate this model whether or not suitable for P-gp, MRP2, and MRP3 studies.
(§2) Frozen samples were adequately vortexed after thawing at the room temperature; 10 μL suitable IS solution was added to 200 μL samples; 200 μL methanol was added after a thorough vortex mixing for 30 s. The mixtures were then vortexed for 30 s and centrifuged at 15,000 rpm for 30 min. Finally, 5 μL of supernatant was injected into the LC-MS/MS system.
The quantifications of the compounds were performed by the TSQ Quantum Ultra Triple Quadrupole LC-MS/MS system from Thermo Fisher Scientific. […] Adaptive gradient elution methods were applied for the analytes. The flow rate of the mobile phase was kept at 0.2 mL min^-1. Flow was directed to the ion spray interface. All measurements were carried out in negative ESI mode. Ion spray voltage was -2500 V. Vaporizer and capillary temperatures were set at 250 and 350°C, respectively. Auto sampler temperature was set at 10°C. Sheath gas and aux gas were set at 30 and 15 Arb, respectively. […] Peak integrations and calibrations were carried out using LC Quan 2.5.2 software from Thermo Fisher Scientific.
(§3) where Cn (nM) is the concentration of the drug at the time point (n), Q (nM) is the accumulated absorption amount, A is the exposed surface area of the intestine (0.49 cm^2), dQ/dt (nM⋅s^-1) is the amount of the drug transported, and C0 (nM) is the initial concentration of the test drug. Experiments were performed in batches, so control groups were set as one for each batch.

[2] = molecular target: T1, MRP2; experiment: Influence of emodin on MRP2 function: pravastatin bidirectional transport in the presence of emodin (Ussing chamber); type: in vitro ADME; set-up: intestinal segments including duodenum, jejunum, ileum, and colon from anesthetized rats were immediately removed by surgery; from tissue; host or cells: stripped rat intestine (jejunum and ileum in validation; jejunum for the emodin studies); settings: rat jejunum; for Papp at 47 μM: rat
Description: as §1, with “(PD). Tissue with electrical values less than 2 mV was refused ([Moazed and Hiebert, 2007]; [Heinen et al., 2013]).” for “(PD).”
In this study, the effects of the three efflux transporters on emodin intestinal absorption were investigated. Meanwhile, the influence of emodin on intestinal P-gp, MRP2, and MRP3 functions were also discussed. Solutions with three concentrations (low, middle, and high) of emodin were filled in the mucosal or serosal compartment to measure the bidirectional transport characteristic. […] In the emodin impact experiments, digoxin, pravastatin, and teniposide were employed as P-gp, MRP2, and MRP3 substrates. Changes of the bidirectional transport characteristic were measured before and after adding emodin to the mucosal side.
as §2
The quantifications of the compounds were performed by the TSQ Quantum Ultra Triple Quadrupole LC-MS/MS system from Thermo Fisher Scientific. Chromatography was carried out using an Agilent Poroshell 120 SB-C18 (2.7 μm, 2.1 mm × 100 mm) column with a Phenomenex AFO-8497 C18 pre-column, operating at 30°C. Adaptive gradient elution methods were applied for the analytes. The flow rate of the mobile phase was kept at 0.2 mL min^-1. Flow was directed to the ion spray interface. All measurements were carried out in negative ESI mode. Ion spray voltage was -2500 V. Vaporizer and capillary temperatures were set at 250 and 350°C, respectively. Auto sampler temperature was set at 10°C. Sheath gas and aux gas were set at 30 and 15 Arb, respectively. […] Peak integrations and calibrations were carried out using LC Quan 2.5.2 software from Thermo Fisher Scientific.
The Q (accumulative quantity), Papp (apparent permeability), Er (efflux ratio), Pr (Papp ratio), and Err (Er ratio) across the excited rat intestinal segments in the Ussing chamber were calculated using the following equations ([Li et al., 2012]; [Huang et al., 2016]): […]
as §3

- Papp ([1]; pH 6.5, rat duodenum, without inhibitor, read-out: Papp M-S, control): 124 ± 67.3 ×10⁻⁶ cm/s
- Papp ([1]; pH 6.5, rat duodenum, without inhibitor, read-out: Papp S-M, control): 287 ± 165 ×10⁻⁶ cm/s
- Papp ([1]; pH 6.5, rat ileum, without inhibitor, read-out: Papp M-S, control): 122 ± 52.5 ×10⁻⁶ cm/s
- Papp ([1]; pH 6.5, rat ileum, without inhibitor, read-out: Papp S-M, control): 678 ± 325 ×10⁻⁶ cm/s
- Papp ([1]; pH 6.5, rat jejunum, without inhibitor, read-out: Papp M-S, control): 146 ± 39.4 ×10⁻⁶ cm/s
- Papp ([1]; pH 6.5, rat jejunum, without inhibitor, read-out: Papp S-M, control): 496 ± 226 ×10⁻⁶ cm/s
- Papp ([1]; pH 6.5, with MK571 186 μM on mucosal side, rat jejunum, with MK571 186 μM on mucosal side, read-out: Papp S-M, with inhibitor): 127 ± 33.4 ×10⁻⁶ cm/s
- Papp ([1]; pH 6.5, with MK571 186 μM, mucosal side, rat duodenum, with MK571 186 μM on mucosal side, read-out: Papp M-S, with inhibitor): 77.9 ± 14.8 ×10⁻⁶ cm/s
- Papp ([1]; pH 6.5, with MK571 186 μM, mucosal side, rat duodenum, with MK571 186 μM on mucosal side, read-out: Papp S-M, with inhibitor): 112 ± 52.7 ×10⁻⁶ cm/s
- Papp ([1]; pH 6.5, with MK571 186 μM, mucosal side, rat ileum, with MK571 186 μM on mucosal side, read-out: Papp M-S, with inhibitor): 124 ± 67.9 ×10⁻⁶ cm/s
- Papp ([1]; pH 6.5, with MK571 186 μM, mucosal side, rat ileum, with MK571 186 μM on mucosal side, read-out: Papp S-M, with inhibitor): 224 ± 141 ×10⁻⁶ cm/s
- Papp ([1]; pH 6.5, with MK571 186 μM, mucosal side, rat jejunum, with MK571 186 μM on mucosal side, read-out: Papp M-S, with inhibitor): 107 ± 26.8 ×10⁻⁶ cm/s
- Change of Papp and Er values of pravastatin after emodin added ([2]; pravastatin 47 μM, emodin 185, 370, 740 μM): No significant differences
- Papp at 47 μM ([2]; pH 6.5, pravastatin 47 μM, without emodin, read-out: Papp M-S, control): 64.5 ± 27.9 ×10⁻⁶ cm/s
- Papp at 47 μM ([2]; pH 6.5, pravastatin 47 μM, without emodin, read-out: Papp S-M, control): 82.2 ± 40.4 ×10⁻⁶ cm/s
- Papp at 47 μM ([2]; pH 6.5, with emodin 185 μM on mucosal side, pravastatin 47 μM, emodin 185 μM on mucosal side, read-out: Papp M-S in the presence of emodin): 123 ± 19.9 ×10⁻⁶ cm/s
- Papp at 47 μM ([2]; pH 6.5, with emodin 185 μM on mucosal side, pravastatin 47 μM, emodin 185 μM on mucosal side, read-out: Papp S-M in the presence of emodin): 70.3 ± 19.8 ×10⁻⁶ cm/s
- Papp at 47 μM ([2]; pH 6.5, with emodin 370 μM on mucosal side, pravastatin 47 μM, emodin 370 μM on mucosal side, read-out: Papp M-S in the presence of emodin): 106 ± 40.3 ×10⁻⁶ cm/s
- Papp at 47 μM ([2]; pH 6.5, with emodin 370 μM on mucosal side, pravastatin 47 μM, emodin 370 μM on mucosal side, read-out: Papp S-M in the presence of emodin): 90.8 ± 12.7 ×10⁻⁶ cm/s
- Papp at 47 μM ([2]; pH 6.5, with emodin 740 μM on mucosal side, pravastatin 47 μM, emodin 740 μM on mucosal side, read-out: Papp M-S in the presence of emodin): 93.8 ± 28.7 ×10⁻⁶ cm/s
- Papp at 47 μM ([2]; pH 6.5, with emodin 740 μM on mucosal side, pravastatin 47 μM, emodin 740 μM on mucosal side, read-out: Papp S-M in the presence of emodin): 105 ± 27.3 ×10⁻⁶ cm/s
SMILES: CC[C@H](C)C(=O)O[C@H]1C[C@H](O)C=C2C=C[C@H](C)[C@H](CC[C@@H](O)C[C@@H](O)CC(=O)O)[C@H]21 [Pravastatin]
